Reference: patent publication US6531469B1, “Substituted 1-(4-piperidyl)-3-(aryl) isothioureas their preparation and their therapeutic application” (Pierre Fabre Medicament, priority 1999, dated 2003)
Counter-ions that a name gives are not always drawn.

Key:
anesthetized rabbits = assay: Ischemia-reinfusion in anesthetized rabbits, oral route; format: in vivo; settings: anesthetized rabbit
Description: (§1) The compounds of the present invention of formula I and the therapeutically acceptable salts thereof have advantageous pharmacological properties. These derivatives are active in vitro, on cardiomyocytes, by inhibiting the diastolic contracture induced with veratrine, on rat isolated left atrium. They also abolish the diastolic contracture induced by the global ischemia of infused isolated guinea pig heart according to the Langendorff technique. These compounds are also active in vivo, in reinfusion ischemia in anesthetized rabbits: they inhibit the electrical disturbances in the ECG which are caused by reinfusion ischemia, without any appreciable hemodynamic effect, and are not cardiac depressants. Such compounds are useful preventively or curatively in the treatment of coronaropathies, cardiac and cerebral ischemia in all their forms and in the treatment of atherosclerosis, cardiac insufficiency, pain, migraine and epilepsy.
The compounds of the present invention are also active via the oral route in the test of ischemia-reinfusion in anesthetized rabbits, according to the method of Verscheure et al. (J. Cardiovasc Pharmacol (1995) 25 p 126-133). The results for the compounds of Examples 6 and 14 are given in Table III below, by way of non-limiting example: […]

[1] = system: infused isolated guinea pig heart; assay: Inhibition of diastolic contracture induced by global ischemia of infused isolated guinea pig heart (Langendorff); settings: global ischemia 50 min, relative to vehicle group; for inhibition at 1 µM: Cavia porcellus, 50 min
Description: as §1
2) Inhibition of the diastolic contracture induced by the global ischemia of infused isolated guinea pig heart is carried out according to the technique described by Le Grand B. et al. (Am. J. Physiol. 269, H533-H540 (1995)). The guinea pig hearts collected are infused with a modified Krebs solution and, after stabilization for 20 minutes, the test compound dissolved in water or in aqueous 1% DMSO solution is added. After 15 minutes, global ischemia is induced by stopping the coronary infusion for 50 minutes, followed by reinfusion for 1 h. The inhibition of ischemic contracture, in the presence of the compounds of the present invention, is measured relative to that obtained in the vehicle group. The results are given in Table II by way of non-limiting example at a concentration of 1 μM.

rat isolated left atrium = assay: Inhibition of the contracture with veratrine, rat isolated left atrium; settings: veratrine-induced contracture, 10^−7 M of test compound
Description: as §1
1) Inhibition of the contracture with veratrine, of rat isolated left atrium, was carried out according to the technique of Le Grand et al. (Naunyn—Schmiedeberg's Arch Pharmacol (1993) 348 p 184-190). The results are given in Table I. The percentages of inhibition are relative to a concentration of 10^−7 M of test compound.

CN(C1=Nc2ccccc2CS1)C1CCN(CCCCCOCc2ccc(F)cc2)CC1.O=C(O)/C=C/C(=O)O
melting point: 167 °C

CN(C1=Nc2ccccc2CS1)C1CCN(CCCCCOCc2ccc(F)c(F)c2)CC1.O=C(O)/C=C/C(=O)O
melting point: 169 °C

CN(C1=Nc2ccccc2CS1)C1CCN(CCCCOCc2ccc(F)c(F)c2)CC1.O=C(O)/C=C/C(=O)O
melting point: 170 °C

CN(C1=Nc2ccccc2CS1)C1CCN(CCCOCc2ccc(F)c(F)c2)CC1.O=C(O)/C=C/C(=O)O
melting point: 168 °C

CN(C1=Nc2ccccc2CS1)C1CCN(CCCCOCCc2ccc(F)c(F)c2)CC1.O=C(O)/C=C/C(=O)O
melting point: 163 °C

COc1ccc(COCCCCCN2CCC(N(C)C3=Nc4ccccc4CS3)CC2)cc1.O=C(O)/C=C/C(=O)O
melting point: 163 °C

COc1ccc(COCCCCN2CCC(N(C)C3=Nc4ccccc4CS3)CC2)cc1.O=C(O)/C=C/C(=O)O
melting point: 165 °C

COc1ccc(COCCCN2CCC(N(C)C3=Nc4ccccc4CS3)CC2)cc1.O=C(O)/C=C/C(=O)O
melting point: 166 °C

COc1ccc(CCOCCCCN2CCC(N(C)C3=Nc4ccccc4CS3)CC2)cc1.O=C(O)/C=C/C(=O)O
melting point: 156 °C

COc1ccc(CCOCCCN2CCC(N(C)C3=Nc4ccccc4CS3)CC2)cc1.O=C(O)/C=C/C(=O)O
melting point: 155 °C

COc1ccc(CCOCCN2CCC(N(C)C3=Nc4ccccc4CS3)CC2)cc1.O=C(O)/C=C/C(=O)O
melting point: 152 to 153 °C

CN(C1=Nc2ccccc2CS1)C1CCN(CCOCc2ccccc2)CC1.O=C(O)/C=C/C(=O)O
melting point: 166 to 167 °C

CN(C1=Nc2ccccc2CS1)C1CCN(CCCOCCc2ccccc2)CC1.O=C(O)/C=C/C(=O)O
melting point: 166 °C

COc1ccc(CCOCC(O)CN2CCC(N(C)C3=Nc4ccccc4CS3)CC2)cc1.O=C(O)/C=C/C(=O)O (stereo not drawn)
melting point: 132 to 133 °C

Cc1ccc2c(c1)CSC(N(C)C1CCN(CCCOCCc3ccc(F)cc3)CC1)=N2.O=C(O)/C=C/C(=O)O
melting point: 169 to 172 °C

CN(C1=Nc2ccc(Cl)cc2CS1)C1CCN(CCCOCCc2ccc(F)cc2)CC1.O=C(O)/C=C/C(=O)O
melting point: 167 to 170 °C

COc1cc2c(c(OC)c1OC)N=C(N(C)C1CCN(CCCOCCc3ccc(F)cc3)CC1)SC2.O=C(O)/C=C/C(=O)O
melting point: 68 °C

CN(C1=Nc2ccccc2CS1)C1CCN(CCCOCc2ccc(F)cc2)CC1.O=C(O)/C=C/C(=O)O
melting point: 163 to 164 °C

CN(C1=Nc2ccccc2CS1)C1CCN(CCOCc2ccc(F)cc2)CC1.O=C(O)/C=C/C(=O)O
melting point: 160 to 161 °C

CN(C1=Nc2ccccc2CS1)C1CCN(CCCOCCCc2ccc(F)cc2)CC1.O=C(O)/C=C/C(=O)O
melting point: 176 °C

CN(C1=Nc2ccccc2CS1)C1CCN(CCCOCCc2ccc(F)cc2)CC1 (as salt: fumarate) [Example 6, N-Methyl-N-[1-[3-[2-(4-fluorophenyl)ethoxy]propyl]-4-piperidyl]-4H-3,1-benzothiazin-2-amine Hydrogen Fumarate]
melting point: 163 to 164 °C

CN(C1=Nc2ccccc2CS1)C1CCN(CCOCCc2ccc(F)cc2)CC1 (as salt: fumarate) [Example 9, N-Methyl-N-[1-[2-[2-(4-fluorophenyl)ethoxy]ethyl]-4-piperidyl]-4H-3,1-benzothiazin-2-amine]
melting point: 145 to 146 °C

Fc1ccc(CCOCCCN2CCC(NC3=Nc4ccccc4CO3)CC2)cc1 (as salt: hydrochloride) (hydrate or solvate) [Example 30, N-[1-[3-[2-(4-Fluorophenyl)ethoxypropyl]-4-piperidyl]-4H-3,1-benzoxazin-2-amine Dihydrochloride Hydrate]
melting point: 158 to 159 °C

CN(C1=Nc2ccccc2CS1)C1CCN(CCCCOc2ccc(F)c(F)c2)CC1 [Control, N-Methyl-N-[1-[4-(3,4-difluorophenoxy)butyl]-4-piperidyl)-4H-3,1-benzothiazin-2-amine]
% change in arterial pressure (anesthetized rabbits; 0.63 mg/kg p.o.): 5%
% change in heart rate (anesthetized rabbits; 0.63 mg/kg p.o.): 0%
% inhibition of over-increase of ST segment (anesthetized rabbits; 0.63 mg/kg p.o.): 31%
Number of animals with reinfusion arrhythmia (anesthetized rabbits; 0.63 mg/kg p.o.): 1/5
inhibition at 1 µM [1]: 48%
inhibition at 0.1 µM (rat isolated left atrium): 26%

CN(C1=Nc2ccccc2CS1)C1CCN(CCCCOCCc2ccc(F)cc2)CC1.O=C(O)/C=C/C(=O)O [Example 5, N-Methyl-N-[1-[4-[2-(4-fluorophenyl)ethoxy]butyl]-4-piperidyl]-4H-3,1-benzothiazin-2-amine Hydrogen Fumarate]
melting point: 173 to 174 °C
inhibition at 0.1 µM (rat isolated left atrium): 63%

CN(C1=Nc2ccccc2CS1)C1CCN(CCCOCCc2ccc(F)cc2)CC1 [Example 6, N-Methyl-N-[1-[3-[2-(4-fluorophenyl)ethoxy]propyl]-4-piperidyl]-4H-3,1-benzothiazin-2-amine Hydrogen Fumarate]
% change in arterial pressure (anesthetized rabbits; 0.63 mg/kg p.o.): 0%
% change in heart rate (anesthetized rabbits; 0.63 mg/kg p.o.): −7%
% inhibition of over-increase of ST segment (anesthetized rabbits; 0.63 mg/kg p.o.): 42%
Number of animals with reinfusion arrhythmia (anesthetized rabbits; 0.63 mg/kg p.o.): 3/5
inhibition at 1 µM [1]: 79%
inhibition at 0.1 µM (rat isolated left atrium): 41%

CN(C1=Nc2ccccc2CS1)C1CCN(CCCOCCc2ccc(F)c(F)c2)CC1.O=C(O)/C=C/C(=O)O [Example 14, N-Methyl-N-[1-[3-[2-(3,4-difluorophenyl)ethoxy]propyl]-4-piperidyl]-4H-3,1-benzothiazin-2-amine Hydrogen Fumarate]
% change in arterial pressure (anesthetized rabbits; 0.63 mg/kg p.o.): 3%
% change in heart rate (anesthetized rabbits; 0.63 mg/kg p.o.): −5%
% inhibition of over-increase of ST segment (anesthetized rabbits; 0.63 mg/kg p.o.): 83%
Number of animals with reinfusion arrhythmia (anesthetized rabbits; 0.63 mg/kg p.o.): 0/5
melting point: 162 °C
inhibition at 1 µM [1]: 77%
inhibition at 0.1 µM (rat isolated left atrium): 32%

CN(c1nc2ccccc2s1)C1CCN(CCCCOc2ccc(F)cc2)CC1 [Example R56865, N-(1-(4-(4-fluorophenoxy)butyl)4-piperidyl)-N-methyl-2-benzothiazolamine]
% change in arterial pressure (anesthetized rabbits; 2.5 mg/kg p.o.): 27%
% change in heart rate (anesthetized rabbits; 2.5 mg/kg p.o.): 0%
% inhibition of over-increase of ST segment (anesthetized rabbits; 2.5 mg/kg p.o.): 0%
Number of animals with reinfusion arrhythmia (anesthetized rabbits; 2.5 mg/kg p.o.): 2/5
% change in arterial pressure (anesthetized rabbits; 10 mg/kg p.o.): 15%
% change in heart rate (anesthetized rabbits; 10 mg/kg p.o.): 5%
% inhibition of over-increase of ST segment (anesthetized rabbits; 10 mg/kg p.o.): 100%
Number of animals with reinfusion arrhythmia (anesthetized rabbits; 10 mg/kg p.o.): 0/5
inhibition at 0.1 µM (rat isolated left atrium): 32%

CS(=O)(=O)c1cc(C(=O)NC(=N)N)ccc1N1CCCCC1.Cl [HOE 694, 3-(Methylsulfonyl-4-piperidinobenzoyl)guanidine hydrochloride, reference compound]
% diastolic contracture inhibition at 1 μM [1]: 17%

CN(c1nc2ccccc2s1)C1CCN(CC(O)COc2ccc(F)cc2)CC1 (stereo not drawn) [Sabeluzole]
% change in arterial pressure (anesthetized rabbits; 10 mg/kg p.o.): 12%
% change in heart rate (anesthetized rabbits; 10 mg/kg p.o.): 0%
% inhibition of over-increase of ST segment (anesthetized rabbits; 10 mg/kg p.o.): 34%
Number of animals with reinfusion arrhythmia (anesthetized rabbits; 10 mg/kg p.o.): 3/4
inhibition at 0.1 µM (rat isolated left atrium): 5%

N-Methyl-N-[1-[2-hydroxy-3-(4-fluorophenylmethoxy)-propyl]-4-piperidyl]-4H-3,1-benzothiazin-2-amine Hemifumarate [Example 23]
% inhibition at 10^−7 M (rat isolated left atrium): 35%
